The source of these data is patent publication US6599932B1, “Alpha, beta-unsaturated sulfones for treating proliferative disorders” (Temple University-Of The Commonwealth System of Higher …, priority 2000, dated 2003).

Common to all, as to type: cell-based
Common to all, as to parameters: dose or concentration left out as unconfirmed

Assay [1] relates to colorectal carcinoma cell line DLD-1. The experiment in a line: Viability assay, Trypan blue exclusion, colorectal carcinoma cell line DLD-1. To be noted: for cytotoxicity: Homo sapiens, DLD-1, 96 hours, read-out: percent cell death (% Death), DLD-1. On the procedure: (§1) The effect of the sulfones on normal fibroblasts and on tumor cells of prostate, colon, lung and breast origin was examined utilizing the following cell lines: prostate tumor cell line DU-145; colorectal carcinoma cell line DLD-1; non-small cell lung carcinoma cell line H157; and breast tumor cell line BT-20. BT-20 is an estrogen-unresponsive cell line. NIH/3T3 and HFL are normal murine and human fibroblasts, respectively. BT-20, DLD-1 and H157 were grown in Dulbecco's modified Eagle's medium (DMEM) containing 10% fetal bovine serum supplemented with penicillin and streptomycin. DU145 was cultured in RPMI with 10% fetal bovine serum containing penicillin and streptomycin. NIH3T3 and HFL cells were grown in DMEM containing 10% calf serum supplemented with penicillin and streptomycin. All cell cultures were maintained at 37° C. in a humidified atmosphere of 5% CO2.
(§2) Cells were treated with test compound […] concentration and cell viability was determined after 96 hours by the Trypan blue exclusion method. Activity for each compound is reported as a range of cell induced death (% Death) with the lowest activity in the range of 5-10%.

In assay [2] the test system is prostate tumor cell line DU-145. The assay can be described thus: Viability assay, Trypan blue exclusion, prostate tumor cell line DU-145. The settings on record: for cytotoxicity: Homo sapiens, DU-145, 96 hours, read-out: percent cell death (% Death), DU145. The method, then:
as §1, §2

Assay [3] relates to breast tumor cell line BT-20. The experiment in a line: Viability assay, Trypan blue exclusion, breast tumor cell line BT-20. To be noted: for cytotoxicity: Homo sapiens, BT-20, 96 hours, read-out: percent cell death (% Death), BT20. On the procedure: as §1, §2
For assay [4], the system named is non-small cell lung carcinoma cell line H157. The assay can be described thus: Viability assay, Trypan blue exclusion, non-small cell lung carcinoma cell line H157. To be noted: for cytotoxicity: Homo sapiens, NCI-H157, 96 hours, read-out: percent cell death (% Death), H157. The method, then:
as §1, §2

A value given as a limit tells only on which side of the number the result lay.

For the compound `O=S(=O)(/C=C/c1ccoc1)Cc1ccc(F)cc1` [Example 41, (E)-3-Furanethenyl-4-fluorobenzylsulfone], the cytotoxicity in assay [1], in assay [2], in assay [3] and in assay [4] was 5 to 10% throughout.

In the case of `O=S(=O)(/C=C/c1ccccn1)Cc1ccc(Cl)cc1` [Example 4, (E)-2-Pyridineethenyl-4-chlorobenzylsulfone], the cytotoxicity in assay [1], in assay [2], in assay [3] and in assay [4] was 5 to 10% each time.

`O=[N+]([O-])c1ccc(CS(=O)(=O)/C=C/c2ccoc2)cc1` [Example 51, (E)-3-Furanethenyl-4-nitrobenzylsulfone]: the cytotoxicity in assay [1], in assay [2], in assay [3] and in assay [4] was 5 to 10% in each case.

Consider `O=S(=O)(/C=C/c1ccc2ccccc2c1)Cc1ccc(Br)cc1` [Example 67, (E)-2-Naphthaleneethenyl-4-bromobenzylsulfone], for which the cytotoxicity in assay [1], in assay [2], in assay [3] and in assay [4] was 5 to 10% in each case.

Take `O=S(=O)(/C=C/c1c2ccccc2cc2ccccc12)Cc1ccc(F)cc1` [Example 74, (E)-9-Anthraceneethenyl-4-fluorobenzylsulfone]: the cytotoxicity in assay [1] is 50 to 60%; in assay [2], 40 to 50%; in assay [3], 50 to 60%; in assay [4] it was over 80%.

Take `O=S(=O)(/C=C/c1ccoc1)Cc1ccc(Cl)cc1` [Example 42, (E)-3-Furanethenyl-4-chlorobenzylsulfone]: the cytotoxicity in assay [1], in assay [2], in assay [3] and in assay [4] was over 80% in each case.

Take `O=S(=O)(/C=C/c1ccsc1)Cc1ccc(F)cc1` [Example 22, (E)-3-Thiopheneethenyl-4-fluorobenzylsulfone]: the cytotoxicity in assay [1], in assay [2], in assay [3] and in assay [4] was 5 to 10% in each case.

Turning to `O=S(=O)(/C=C/c1cccnc1)Cc1ccc(Cl)cc1` [Example 5, (E)-3-Pyridineethenyl-4-chlorobenzylsulfone], the cytotoxicity in assay [1], in assay [2], in assay [3] and in assay [4] was 5 to 10% in each case.

In the case of `O=[N+]([O-])c1cc(/C=C/S(=O)(=O)Cc2ccc(Cl)cc2Cl)cs1` [Example 57, (E)-2-Nitro-4-thiopheneethenyl-2,4-dichlorobenzylsulfone], the cytotoxicity in assay [1] was 10 to 15%; in assay [2], 10 to 15%; in assay [3] it was 5 to 10%; in assay [4] it was 5 to 10%.

On to `O=S(=O)(/C=C/c1ccoc1)Cc1ccc(Cl)cc1Cl` [Example 48, (E)-3-Furanethenyl-2,4-dichlorobenzylsulfone], for which the cytotoxicity in assay [1], in assay [2], in assay [3] and in assay [4] was over 80% throughout.

Consider `O=S(=O)(/C=C/c1cccs1)Cc1ccc(Cl)cc1` [Example 11, (E)-2-Thiopheneethenyl4-chlorobenzylsulfone], for which the cytotoxicity in assay [1], in assay [2], in assay [3] and in assay [4] was 5 to 10% each time.

For the compound `O=S(=O)(/C=C/c1ccc(F)cc1)Cc1cccc2ccccc12` [Example 68, (E)-4-Fluorostyryl-1-(naphthylmethyl)sulfone], the cytotoxicity in assay [1], in assay [2], in assay [3] and in assay [4] was 5 to 10% throughout.

On to `O=S(=O)(/C=C/c1cc(Br)cs1)Cc1ccc(F)cc1` [Example 13, (E)-4-Bromo-2-thiopheneethenyl-4-fluorobenzylsulfone], for which the cytotoxicity in assay [1], in assay [2], in assay [3] and in assay [4] was 5 to 10% in each case.

For `O=S(=O)(/C=C/c1c2ccccc2cc2ccccc12)Cc1ccc(Br)cc1` [Example 76, (E)-9-Anthraceneethenyl-4-bromobenzylsulfone], the cytotoxicity in assay [1] was in the range of 40 to 50%; in assay [2], 50 to 60%; in assay [3], 50 to 60%; in assay [4], 40 to 50%.

With `O=S(=O)(/C=C/c1ccc(Br)cc1)Cc1cccc2ccccc12` [Example 70, (E)-4-Bromostyryl-1-(naphthylmethyl)sulfone], the cytotoxicity in assay [1], in assay [2], in assay [3] and in assay [4] was 5 to 10% each time.

As to `O=S(=O)(/C=C/c1cccnc1)Cc1ccc(Br)cc1` [Example 8, (E)-3-Pyridineethenyl-4-bromobenzylsulfone], the cytotoxicity in assay [1], in assay [2], in assay [3] and in assay [4] was 10 to 15% in each case.

In the case of `O=S(=O)(/C=C/c1ccccn1)Cc1ccc(Br)cc1` [Example 7, (E)-2-Pyridineethenyl-4-bromobenzylsulfone], the cytotoxicity in assay [1], in assay [2], in assay [3] and in assay [4] was 5 to 10% throughout.

Take `O=S(=O)(/C=C/c1ccncc1)Cc1ccc(Cl)cc1` [Example 6, (E)4-Pyridineethenyl4-chlorobenzylsulfone]: the cytotoxicity in assay [1], in assay [2], in assay [3] and in assay [4] was 5 to 10% each time.

As to `O=S(=O)(/C=C/c1ccsc1)Cc1ccc(Cl)cc1` [Example 23, (E)-3-Thiopheneethenyl-4-chlorobenzylsulfone], the cytotoxicity in assay [1], in assay [2], in assay [3] and in assay [4] was 40 to 50% throughout.

As for `O=S(=O)(/C=C/c1ccc(Br)s1)Cc1ccc(F)cc1` [Example 16, (E)-5-Bromo-2-thiopheneethenyl-4-fluorobenzylsulfone], the cytotoxicity in assay [1], in assay [2], in assay [3] and in assay [4] was 5 to 10% throughout.

For `O=S(=O)(/C=C/c1ccsc1)Cc1ccc(Br)cc1` [Example 24, (E)-3-Thiopheneethenyl-4-bromobenzylsulfone], the cytotoxicity in assay [1], in assay [2], in assay [3] and in assay [4] was 40 to 50% each time.

For the compound `O=S(=O)(/C=C/c1ccsc1)Cc1ccc(OC(F)(F)F)cc1` [Example 28, (E)-3-Thiopheneethenyl-4-trifloromethoxylbenzylsulfone], the “percent cell death (% Death), DLD-1” value in assay [1] (96 hours) is recorded as “+ ((+)=5-10%)”. In addition, the “percent cell death (% Death), DU145” value in assay [2] (96 hours) is “+ ((+)=5-10%)”. Also, the “percent cell death (% Death), BT20” value in assay [3] (96 hours) was “+ ((+)=5-10%)”. In addition, in assay [4] (96 hours), the “percent cell death (% Death), H157” value is “+ ((+)=5-10%)”.

On to `O=[N+]([O-])c1cccc(/C=C/S(=O)(=O)Cc2cccc3ccccc23)c1` [Example 72, (E)-3-Nitrostyryl-1-(naphthylmethyl)sulfone], for which the cytotoxicity in assay [2] and in assay [3] was 5 to 10% each time.

Regarding `O=[N+]([O-])c1ccccc1/C=C/S(=O)(=O)Cc1cccc2ccccc12` [Example 71, (E)-2-Nitrostyryl-1-(naphthylmethyl)sulfone], the cytotoxicity in assay [2] and in assay [3] was 40 to 50% throughout.
